Like-named read-outs stand apart in the source and are kept apart here.
Columns and labels:
type 2 diabetes patients [1] = conditions: human, in vivo; cited from earlier work
[2] = system: type 2 diabetes patients with low HDL cholesterol and a recent acute coronary syndrome (ACS); assay: BETonMACE Phase 3 trial (NCT02586155), post-hoc analysis by SGLT2 inhibitor use
Description: All patients received high intensity statin treatment as well as other evidence-based treatments.
Patients (n=2425) with ACS in the preceding 7 to 90 days, with type 2 diabetes and low HDL cholesterol (≤40 mg/dl for men, 45 mg/dl for women), receiving intensive or maximum-tolerated therapy with atorvastatin or rosuvastatin, were assigned in double-blind fashion to receive apabetalone 100 mg orally twice daily or matching placebo. […] The primary efficacy measure is time to first occurrence of cardiovascular death, non-fatal myocardial infarction, or stroke.
Those patients who received at least one dose of SGLT2 treatment after the date of the first incidence of event were censored as non-MACE events and the date of last contact was used as the censoring date.
The distributions of the endpoints within the apabetalone and placebo groups were compared using a two-sided log-rank test (LRT) with an alpha=0.05 level of significance. The cumulative incidence is shown as 1-KM (Kaplan-Meier) estimate for event rate.

type 2 diabetes patients [3] = conditions: cited from earlier work
[4] = cardiovascular death, non-fatal myocardial infarction, or stroke, FIGS. 1-2
[5] = patients not treated with SGLT2 inhibitor, vs placebo (FIG. 2)
[6] = patients not treated with SGLT2 inhibitor, vs placebo (FIG. 5)
[7] = patients not treated with SGLT2 inhibitor, vs placebo (FIG. 8)
[8] = patients not treated with SGLT2 inhibitor, vs placebo (FIG. 11)
[9] = patients not treated with SGLT2 inhibitor, vs placebo (FIG. 14)
[10] = patients not treated with SGLT2 inhibitor, vs placebo (FIG. 17)

For Cc1ccc([C@@H]2O[C@H](CO)[C@@H](O)[C@H](O)[C@H]2O)cc1Cc1ccc(-c2ccc(F)cc2)s1 [Canaglifozin, canagliflozin], the “HR, narrowly defined MACE” value (type 2 diabetes patients [1]) is given as 0.86, the “reduction of narrowly defined MACE” value (type 2 diabetes patients [1]) is given as 14% and the “reductions in the individual MACE events” value (type 2 diabetes patients [1]) is given as “did not reach statistical significance”.

In the case of COc1cc(OC)c2c(=O)[nH]c(-c3cc(C)c(OCCO)c(C)c3)nc2c1 [apabetalone, 2-(4-(2-hydroxyethoxy)-3,5-dimethylphenyl)-5,7-dimethoxyquinazolin-4(3H)-one], the “Kaplan-Meier estimated event rate, narrowly defined MACE” value ([2]; at 18 months, FIGS. 1-2) was 8.0%, the “primary end points (narrowly defined MACE), number in group” value [2, 4] was 111 and the “primary end points (narrowly defined MACE), percent of group” value [2, 4] was 10.5%. For the same molecule, the “Hazard Ratio [HR], narrowly defined MACE” value [2, 5] was 0.84, the “reduction of number of patients having a narrowly defined MACE event at any given time” value [2, 5] was 16% and the “Hazard Ratio [HR], broadly defined MACE” value [2, 6] was 0.87. The “reduction of number of patients having a broadly defined MACE event at any given time” value [2, 6] was 13%, the “Hazard Ratio [HR], non-fatal myocardial infarction” value [2, 7] was 0.85 and the “reduction of number of patients having a non-fatal myocardial infarction event at any given time” value [2, 7] was 15%. For the same molecule, the “Hazard Ratio [HR], cardiovascular death” value [2, 8] was 0.84, the “reduction of number of patients having a cardiovascular death event at any given time” value [2, 8] was 16% and the “Hazard Ratio [HR], hospitalization for cardiovascular diseases” value [2, 9] was 0.87. For the same molecule, the “reduction of number of patients having a hospitalization for cardiovascular diseases event at any given time” value [2, 9] was 13%, the “Hazard Ratio [HR], hospitalization for congestive heart failure” value [2, 10] was 0.61 and the “reduction of number of patients having a hospitalization for congestive heart failure event at any given time” value [2, 10] was 39%.

In the case of OC[C@H]1O[C@@H](c2ccc(Cl)c(Cc3ccc(O[C@H]4CCOC4)cc3)c2)[C@H](O)[C@@H](O)[C@@H]1O [empaglifozin, empagliflozin], the “HR, broadly defined MACE” value (type 2 diabetes patients [3]; human, in vivo) is listed as 0.89, the “HR, cardiovascular deaths” value (type 2 diabetes patients [3]; human, in vivo) is listed as 0.62 and the “Hazard Ratio [HR], narrowly defined MACE” value (type 2 diabetes patients [3]; human, in vivo) is listed as 0.86. For the same molecule, the “reduction of broadly defined MACE” value (type 2 diabetes patients [3]; human, in vivo) was 11%, the “reduction of narrowly defined MACE” value (type 2 diabetes patients [3]; human, in vivo) was 14% and the “HR, individual MACE events” value (type 2 diabetes patients [3]; with the exception of cardiovascular deaths, did not show any reduction) was 1.0.
